Data taken from US10703746B2, “Mutant IDH1 inhibitors useful for treating cancer” (THE UNITED STATES OF AMERICA, AS REPRESENTED BY THE …, priority 2014, dated 2020).

Tests used:
IDH1 R132H = IDH1 R132H (Homo sapiens, UniProt O75874, R132H); test: IDH1 R132H enzymatic assay (NADPH depletion coupled to diaphorase/resazurin); format: biochemical; settings: IDH1 R132H enzymatic inhibition, IC50 class
Method: (§1) Assays were conducted in a 1536-well black solid-bottom plate with a final assay volume of 9 μL.
Specifically, for IDH1 R132H, 3 μL of enzyme (4 mM β-ME, 0.0005 mg/mL IDH1 R132H, 150 mM NaCl, 20 mM Tris pH 7.5, 10 mM MgCl2, 0.05% BSA) were added to the plate, followed by the addition of 23 nL of test compound in DMSO. The plate was lidded and incubated at room temperature for 30 minutes at which time 3 μL of substrate were added (0.016 mM NADPH, 2 mM α-KG, 150 mM NaCl, 20 mM Tris pH 7.5, 10 mM MgCl2, 0.05% BSA). This reaction was incubated at room-temperature for 60 minutes at which time the detection mix was added (0.06 mg/mL diaphorase, 0.036 mM resazurin, 150 mM NaCl, 20 mM Tris pH 7.5, 10 mM MgCl2, 0.05% BSA). […]

IDH1 R132C = IDH1 R132C (Homo sapiens, UniProt O75874, R132C); test: IDH1 R132C enzymatic assay (NADPH depletion coupled to diaphorase/resazurin); format: biochemical; settings: IDH1 R132C enzymatic inhibition, IC50 class
Method: as §1
For IDH1 R132C, 3 μL of enzyme (0.00032 mg/mL IDH1 […], 10% glycerol, 50 mM potassium phosphate pH 6.5, 5 mM MgCl2, 0.03% BSA) were added to the plate, followed by the addition of 23 nL of test compound in DMSO. The plate was lidded and incubated at room temperature for 30 minutes at which time 3 μL of substrate were added (0.012 mM NADPH, 0.6 mM α-KG, 10% glycerol, 50 mM potassium phosphate pH 6.5, 5 mM MgCl2, 0.03% BSA). […]

Sequence of IDH1 R132H (O75874 whole entry R132H): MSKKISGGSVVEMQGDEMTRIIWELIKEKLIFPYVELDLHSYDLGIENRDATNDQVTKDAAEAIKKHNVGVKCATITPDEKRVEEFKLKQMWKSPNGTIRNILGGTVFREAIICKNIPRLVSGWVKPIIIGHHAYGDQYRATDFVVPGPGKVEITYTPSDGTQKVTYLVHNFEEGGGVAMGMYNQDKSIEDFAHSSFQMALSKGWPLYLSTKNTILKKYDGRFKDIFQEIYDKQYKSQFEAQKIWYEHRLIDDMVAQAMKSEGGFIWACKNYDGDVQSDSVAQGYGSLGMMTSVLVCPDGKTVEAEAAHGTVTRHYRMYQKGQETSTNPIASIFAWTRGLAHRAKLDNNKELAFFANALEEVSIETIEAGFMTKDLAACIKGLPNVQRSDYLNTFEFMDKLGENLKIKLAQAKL
Sequence of IDH1 R132C (O75874 whole entry R132C): as the sequence (O75874 whole entry R132H) above, with H132C counted along it

SMILES	IC50 (IDH1 R132H) [nM]	IC50 (IDH1 R132C) [nM]
CCc1cccc(CC)c1-n1c(CC(C)C)c(C(=O)N2CCC(CO)CC2)cc(-c2nc(-c3ccc(Cl)cc3)cs2)c1=O [Compound 94]	1000 to 5000	< 300
COc1cc(N)ccc1-n1c2c(cc(-c3nc(-c4ccc(Cl)cc4)cs3)c1=O)C(=O)CC(C)(C)C2 [Compound 95]	1000 to 5000	1000 to 5000
COc1ccc(OC)c(-n2c(=O)c(-c3nc(-c4ccc(Cl)cc4)cs3)cc3c(OC)nccc32)c1 [Compound 97]	5000 to 20000	1000 to 5000
CCc1cccc(CC)c1-n1c(C(C)C)c(C(=O)O)cc(-c2nc(-c3ccc(Cl)cc3)cs2)c1=O [Compound 98]	1000 to 5000	5000 to 20000
CCc1cccc(CC)c1-n1c(C)c(C(=O)NC2CCNC2)cc(-c2nc(-c3ccc(Cl)cc3)cs2)c1=O (stereo not shown) [Compound 99]	1000 to 5000	300 to 1000
CCc1cccc(CC)c1-n1c(CO)c(C(=O)NC)cc(-c2nc(-c3ccc(Cl)cc3)cs2)c1=O [Compound 100]	1000 to 5000	1000 to 5000
CCc1cccc(CC)c1-n1c(C(C)C)c(C(=O)NC[C@@H](C)O)cc(-c2nc(-c3ccc(Cl)cc3)cs2)c1=O [Compound 101]	1000 to 5000	300 to 1000
CCc1cccc(CC)c1-n1c(CC(C)C)c(C(=O)N2CCN[C@@H](C(=O)O)C2)cc(-c2nc(-c3ccc(Cl)cc3)cs2)c1=O [Compound 102]	300 to 1000	< 300
CCc1cccc(CC)c1-n1c(C)c(C(=O)N2CCC(O)C2)cc(-c2nc(-c3ccc(Cl)cc3)cs2)c1=O (stereo not shown) [Compound 103]	1000 to 5000	5000 to 20000
CCc1cccc(CC)c1-n1c(CC(C)C)c(C(=O)N2CCNCC2)cc(-c2ccn(-c3ccccc3)n2)c1=O [Compound 104]	1000 to 5000	1000 to 5000
CC(=O)Nc1ccccc1-n1c2c(cc(-c3nc(-c4ccc(Cl)cc4)cs3)c1=O)C(=O)CC(C)(C)C2 [Compound 105]	1000 to 5000	5000 to 20000
CCc1cccc(CC)c1-n1c(C)c(C(=O)N2CCNC(CO)C2)cc(-c2nc(-c3ccc(Cl)cc3)cs2)c1=O (stereo not shown) [Compound 106]	< 300	300 to 1000
CCc1cccc(CC)c1-n1c(CC(C)C)c(C(=O)N2CCNC(C)C2C)cc(-c2nc(-c3ccc(Cl)cc3)cs2)c1=O (stereo not shown) [Compound 107]	300 to 1000	< 300
CCc1cccc(CC)c1-n1c(C)c(C(=O)NC)cc(-c2nc(-c3ccc(Cl)cc3)cs2)c1=O [Compound 108]	1000 to 5000	1000 to 5000
CCc1cccc(CC)c1-n1c(C)c(C(=O)N2CCC(C(=O)O)CC2)cc(-c2nc(-c3ccc(Cl)cc3)cs2)c1=O [Compound 109]	1000 to 5000	5000 to 20000
CCc1cccc(CC)c1-n1c(C)c(C(=O)N2CCOCC2)cc(-c2nc(-c3ccc(Cl)cc3)cs2)c1=O [Compound 110]	1000 to 5000	1000 to 5000
COc1ccc(OC)c(-n2c3c(cc(-c4cccc(-c5ccc(Cl)cc5)c4)c2=O)C(=O)CC(C)(C)C3)c1 [Compound 111]	> 20000	5000 to 20000
CCc1cccc(CC)c1-n1c(CC(C)C)c(C(=O)N2C[C@@H](C)N[C@@H](C)C2)cc(-c2nc(-c3ccc(Cl)cc3)cs2)c1=O [Compound 112]	300 to 1000	< 300
CCc1cccc(CC)c1-n1c(CC(C)C)c(C(=O)N2CC(C(=O)OC)NCC2C)cc(-c2nc(-c3ccc(Cl)cc3)cs2)c1=O (stereo not shown) [Compound 113]	1000 to 5000	300 to 1000
CCc1cccc(CC)c1-n1c(C)c(C(=O)NC2CCCNC2)cc(-c2nc(-c3ccc(Cl)cc3)cs2)c1=O (stereo not shown) [Compound 114]	1000 to 5000	300 to 1000
CC1(C)CC(=O)c2cc(-c3nc(-c4ccc(Cl)cc4)cs3)c(=O)n(-c3ccccc3CC(F)(F)F)c2C1 [Compound 115]	300 to 1000	300 to 1000
CCc1cccc(CC)c1-n1c(C)c(C(=O)NC2CCCCC2)cc(-c2nc(-c3ccc(Cl)cc3)cs2)c1=O [Compound 116]	> 20000	1000 to 5000
CCc1cccc(CC)c1-n1c(CC(C)C)c(C(=O)N2CCNC(C(=O)OC)C2)cc(-c2nc(-c3ccc(Cl)cc3)cs2)c1=O (stereo not shown) [Compound 117]	1000 to 5000	< 300
CCc1cccc(CC)c1-n1c(CC(C)C)c(C(=O)NC(C)CO)cc(-c2nc(-c3ccc(Cl)cc3)cs2)c1=O (stereo not shown) [Compound 118]	300 to 1000	< 300
CCc1cccc(CC)c1-n1c2c(cc(-c3nc(-c4cccnc4)cs3)c1=O)C(=O)CC(C)(C)C2 [Compound 119]	5000 to 20000	1000 to 5000

SMILES	IC50 (IDH1 R132H) [nM]	IC50 (IDH1 R132C) [nM]
COc1ccc(OC)c(-n2c3c(cc(-n4cc(-c5ccccc5)cn4)c2=O)C(=O)CC(C)(C)C3)c1 [Compound 120]	> 20000	> 20000
CC1(C)CC(=O)c2cc(-c3nc(-c4ccc(Cl)cc4)cs3)c(=O)n(-c3ccccn3)c2C1 [Compound 121]	5000 to 20000	5000 to 20000
COc1ccc(N)cc1-n1c2c(cc(-c3nc(-c4ccc(Cl)cc4)cs3)c1=O)C(=O)CC(C)(C)C2 [Compound 122]	1000 to 5000	300 to 1000
CCc1cccc(CC)c1-n1c(C)c(C(=O)NC(C)(C)C)cc(-c2nc(-c3ccc(Cl)cc3)cs2)c1=O [Compound 123]	5000 to 20000	1000 to 5000
COc1ccc(OC)c(-n2c3c(cc(-c4nc(C)cs4)c2=O)C(=O)CC(C)(C)C3)c1 [Compound 124]	> 20000	5000 to 20000
CCc1cccc(CC)c1-n1c(C(C)C)c(C(=O)OC)cc(-c2nc(-c3ccc(Cl)cc3)cs2)c1=O [Compound 125]	1000 to 5000	1000 to 5000
CCc1cccc(CC)c1-n1c(CC(C)C)c(C(=O)NCC(O)C(F)(F)F)cc(-c2nc(-c3ccc(Cl)cc3)cs2)c1=O (stereo not shown) [Compound 127]	300 to 1000	< 300
COc1ccc([N+](=O)[O-])cc1-n1c2c(cc(-c3nc(-c4ccc(Cl)cc4)cs3)c1=O)C(=O)CC(C)(C)C2 [Compound 128]	1000 to 5000	1000 to 5000
COc1ccc(OC)c(-n2c3c(cc(-c4nc(-c5ccc(Cl)cc5)cs4)c2=O)C(=O)CCC3)c1 [Compound 129]	1000 to 5000	1000 to 5000
CC(C)Oc1ccccc1-n1c2c(cc(-c3nc(-c4ccc(Cl)cc4)cs3)c1=O)C(=O)CC(C)(C)C2 [Compound 130]	1000 to 5000	300 to 1000
CCc1cccc(CC)c1-n1c(CC(C)C)c(C(=O)N2CCN[C@@H](C(=O)OC)C2)cc(-c2nc(-c3ccc(Cl)cc3)cs2)c1=O [Compound 131]	1000 to 5000	< 300
CCc1cccc(CC)c1-n1c2c(cc(-c3nc(-c4ccncc4)cs3)c1=O)C(=O)CC(C)(C)C2 [Compound 132]	1000 to 5000	1000 to 5000
CCc1cccc(CC)c1-n1c(C)c(C(=O)N(C)CCCNC)cc(-c2nc(-c3ccc(Cl)cc3)cs2)c1=O [Compound 133]	5000 to 20000	1000 to 5000
CCSc1ccccc1-n1c2c(cc(-c3nc(-c4ccc(Cl)cc4)cs3)c1=O)C(=O)CC(C)(C)C2 [Compound 134]	1000 to 5000	300 to 1000
CCCSc1ccccc1-n1c2c(cc(-c3nc(-c4ccc(Cl)cc4)cs3)c1=O)C(=O)CC(C)(C)C2 [Compound 135]	1000 to 5000	300 to 1000
COc1cc(C(=O)O)ccc1-n1c2c(cc(-c3nc(-c4ccc(Cl)cc4)cs3)c1=O)C(=O)CC(C)(C)C2 [Compound 136]	> 20000	> 20000
CCc1cccc(CC)c1-n1c(CC(C)C)c(C(=O)N2CCNCC2)cc(-c2nc(-c3ccc(N4CCNCC4)cc3)c(C)s2)c1=O [Compound 137]	> 20000	> 20000
CCc1cccc(CC)c1-n1c(C)c(C(=O)N2CCNC(=O)C2)cc(-c2nc(-c3ccc(Cl)cc3)cs2)c1=O [Compound 138]	< 300	1000 to 5000
CCc1cccc(CC)c1-n1c(C)c(C(=O)N2CC(N)C2)cc(-c2nc(-c3ccc(Cl)cc3)cs2)c1=O [Compound 139]	1000 to 5000	1000 to 5000
CCc1cccc(CC)c1-n1c(CC(C)C)c(C(=O)NC[C@H](NC(C)=O)C(=O)O)cc(-c2nc(-c3ccc(Cl)cc3)cs2)c1=O [Compound 140]	5000 to 20000	5000 to 20000
CCc1cccc(CC)c1-n1c(CC(C)C)c(C(=O)N2CCN[C@@H](C)C2)cc(-c2nc(-c3ccc(Cl)cc3)cs2)c1=O [Compound 141]	300 to 1000	< 300
CCc1cccc(CC)c1-n1c(C)c(C(=O)N2CCNC[C@H]2C)cc(-c2nc(-c3ccc(Cl)cc3)cs2)c1=O [Compound 142]	< 300	300 to 1000
CCc1cccc(CC)c1-n1c(C)c(C(=O)O)cc(-c2nc(-c3ccc(Cl)cc3)cs2)c1=O [Compound 143]	5000 to 20000	5000 to 20000
COc1ccc(OC)c(-n2c3c(cc(-c4nc(-c5ccc(Cl)cc5)cs4)c2=O)C=CC(C)(C)C3)c1 [Compound 144]	1000 to 5000	1000 to 5000
CCc1cccc(CC)c1-n1c(CC(C)C)c(C(=O)N2CCNCC2c2ccccc2)cc(-c2nc(-c3ccc(Cl)cc3)cs2)c1=O (stereo not shown) [Compound 145]	300 to 1000	< 300
